The subject of one series is S100A8-TLR4/MD-2 complex. The series can be described thus: Competitive inhibition of S100A8-TLR4/MD-2 binding (ELISA, S100A8 immobilized; also immunoprecipitation). Also noted: species or system human. The following applies: ELISA, peptide3A5 vs peptide #3 (Fig. 3B); divalent vs monomer (Fig. 4A). On the procedure:
S100A8 recombinant protein was purified as previously described. These proteins were immobilized on Maxisorp plates (Thermo Fisher Scientific, Waltham, MA, USA), followed by blocking with protein-free blocking buffer (Thermo Fisher Scientific). TLR4/MD-2 recombinant proteins with various concentrations of candidate peptides were then added to the indicated S100A8-immobilized ELISA plates for 2 h. The plates were washed, incubated with anti-TLR4 antibody, and HRP-conjugated secondary antibody, followed by the addition of substrate. The reaction was stopped by addition a 2N H2SO4 solution. Absorbance OD450/OD650 was measured using a microplate reader (Thermo Fisher Scientific). Maxisorp plates were also used for peptide coating. After blocking with protein-free blocking buffer, the coated plates were washed, and TLR4/MD-2 recombinant protein (2 µg/ml) was added to each well. The plates were incubated with a TLR4 antibody followed by horseradish peroxidase (HRP)-labeled anti-rabbit IgG. For detection of IL8 and VEGF in culture supernatants, SW480 cells were pretreated with the indicated peptides, and followed by stimulation with S100A8 for 24 h. The amount of interleukin-8 (IL-8) or VEGF in the supernatants were analyzed by ELISA kits (R&D Systems, Mineapolis, MN) according to the manufacturer’s instructions.
Fig. 2 Identification of S100A8 binding sites to human TLR4/MD-2. […] TLR4/MD-2 recombinant proteins were immobilized to the ELISA plate. After blocking, a full length or deletion mutant of S100A8 was added to the plate. The more detailed methods are described in Materials and Methods. […] B A series of overlapping S100A8 synthetic peptides. The TLR4/MD-2 recombinant proteins were added to each well of peptide immobilized plates. The affinity to TLR4/MD-2 was determined. Data are shown as mean ± SD. C The competitive activity was determined using ELISA. Data are shown as mean ± SD. D The TLR4/MD-2 was mixed with S100A8 with/without the indicated peptides, and immunoprecipitated using an anti-TLR4 antibody. TLR4 or S100A8 was visualized. Similar results were obtained in three independent experiments. […] Total RNAs from SW480 cells with/without treatment of the peptide candidates were extracted and qPCR analysis was performed using relevant primer sets and SYBR green. Relative expression levels were compared. […] TEXT PRINTED IN THE PICTURE: (A) Full length: TLR4/MD-2 binding: + | (A) S100A8-ΔC: TLR4/MD-2 binding: − | (A) S100A8-N: TLR4/MD-2 binding: −
Fig. 4 Improvement of competitive inhibition activity by divalent peptide3A5. A The binding capacity was measured at the indicated concentration using an ELISA-based assay. Similar results were obtained in three independent experiments. B SW480 cells were pretreated with 2.5 µM of divalent peptide3A5, and then stimulated with human S100A8 recombinant protein. After 30 min, cell lysates were subjected to western blotting using the indicated antibody. The divalent peptide#3 or peptide3A5 reduced the expression of S100A8-mediated IL-8 (C) and VEGF (D) induction. Total RNAs from SW480 cells with/without treatment of the peptide candidates were extracted and qPCR analysis was performed using relevant primer sets and SYBR green. Relative expression levels were compared. Peptide #3 suppresses S100A8-mediated IL-8(E) and VEGF (F) secretion in SW480 cells.

Series [1] has as its system tumor vasculature of SW480 xenograft. The series can be described thus: Tumor vasculature and pericyte coverage (CD31, α-SMA) in SW480 tumors. It counts as in vivo, Balb nu/nu mice. On the procedure: (§1) To immunostain tumor vasculatures, the cryo sections (6 µm) obtained from frozen primary tumors, were incubated with anti-CD31 (BD Pharmingen, Cat No. 550274), and/or anti-α-SMA-Cy3 (Sigma-Aldrich, Cat No. C6198) followed by AlexaFlour 488-conjugated rat IgG secondary antibodies (Thermo Fisher Scientific) were used to visualize the signals by a confocal microscopy (LSM-710; Carl Zeiss). DAPI staining was used for nuclear staining. For immunohistochemistry, the paraffin-embedded sections were cut 4 µm thick and then deparaffinized, rehydrated and then treated for antigen retrieval. The sections were incubated with the indicated antibody overnight, followed by incubation with ImmPRESS HRP Reagent (Vector, Newark, CA). ImmPACT DAB (Vector) was used for visualization of the signals. The images were captured by BZ-X800 (Keyence, Osaka, Japan).

Another series has as its system CD8+ cells. The series can be described thus: Intratumoral infiltrating CD8+ cells. The series is classed as in vivo, mouse. To be noted: Supplementary Fig. 3A. On the procedure:
as §1

For a further series, the system named is C57BL6 mice. As to the kind of experiment: Toxicity in C57BL6 mice. The following applies: Supplementary Table 1. It counts as in vivo, mouse. From the text:
(§2) Because S100A8 inhibitory peptides target S100A8-TLR4/MD-2, which plays a role in innate immunity, the complete functional activities of S100A8 inhibitory peptides are expected to be observed in immunocompetent models. To date, syngeneic models are one of the only options to test physiological interactions between tumors and immune cells. […] LLC cells were identified as non-responders to anti-PD-1/programmed death-ligand 1 (PD-L1) therapy. […] We then examined the effect of divalent peptide3A5 in mouse MC38 colorectal cancer cells used as anti-PD-1 responder cells. We previously confirmed that MC38 endogenously expressed TLR4/MD-2 [8].

Series [2] concerns p38 and p65 (NF-κB) in SW480 cells. As to the kind of experiment: Western blotting, S100A8-induced phosphorylation of p38 and p65 in SW480 cells. The following applies: 2.5 µM pretreatment, human S100A8 30 min. It counts as cell-based. On the procedure:
Cells were lysed in lysis buffer (50 mM Tris-HCl [pH 7.4], 150 mM NaCl, 5 mM Na4P2O7, 10 mM β-glycerophosphate, 25 mM NaF, 1 mM EDTA, 1 mM EGTA, 1 mM Na3VO4, and 1% [v/v] Triton X-100) containing the cOmplete^TM Mini protease inhibitor cocktail (Roche Diagnostics, Indianapolis, IN, USA) as described previously. Cell lysates (20 µg) were separated using SDS-PAGE and transferred to an Immun-Blot PVDF membrane (Bio-Rad, Hercules, CA, USA). After blocking with Blocking One or Blocking One-P (Nacalai tesque, Kyoto, Japan), membranes were probed with the indicated antibodies, followed by HRP-labeled anti-rabbit IgG and anti-mouse IgG (GE Healthcare). Signals were visualized using Immobilon Western HRP Substrate (Millipore, Billerica, USA).
Fig. 4 Improvement of competitive inhibition activity by divalent peptide3A5. A The binding capacity was measured at the indicated concentration using an ELISA-based assay. Similar results were obtained in three independent experiments. B SW480 cells were pretreated with 2.5 µM of divalent peptide3A5, and then stimulated with human S100A8 recombinant protein. After 30 min, cell lysates were subjected to western blotting using the indicated antibody. The divalent peptide#3 or peptide3A5 reduced the expression of S100A8-mediated IL-8 (C) and VEGF (D) induction. […]

Series [3] relates to MC38 colorectal cancer cells. As to the kind of experiment: Tumor suppression in MC38 model. The series is classed as in vivo, mouse. To be noted: with anti-PD-1 antibody, Supplementary Fig. 3B.
From the text: as §2

The next series relates to MDSCs. The series can be described thus: MDSCs in LLC tumor-bearing mice. The series is classed as in vivo, C57BL/6J mice. The following applies: peripheral blood of LLC-tumor-bearing mice; *P < 0.05 vs control.

“Also recorded” adds a separate entry of the source.

From paper PMC10021052, “Novel multivalent S100A8 inhibitory peptides attenuate tumor progression and metastasis by inhibiting the TLR4-dependent pathway” (Cancer Gene Therapy, 2023) come the findings set out here.

Turning to “FQEFAILVIK [Divalent peptide3A5, divalent peptide of peptide3A5 using Fmoc-Lys (Fmoc)-OH to form two branches]”, the “competitive inhibition, potency compared with parent” value in the series on S100A8-TLR4/MD-2 complex is given as “observed at a lower dose range than the effect of the peptide3A5 monomer”. Also, the “pericyte coverage (α-SMA/CD31)” value in series [1] (5 mg/kg or 10 mg/kg) is “significantly increased the pericyte coverage”. In addition, in series [1] (anti-CD31 staining), the tumor vasculature result is recorded as “significantly diminished”. Also, in the series with CD8+ cells (LLC tumor-bearing mice), the “intratumoral infiltrating CD8+ cells, alone” value is “increased”. In the series with CD8+ cells (combination with anti-PD-1 antibody), the “intratumoral infiltrating CD8+ cells, combination with anti-PD-1” value is on record as “increased”. Further, the “toxicity in C57BL6 mice” value in the series on C57BL6 mice is “did not display any toxicity”. In series [2], the “inhibition of S100A8-induced phosphorylation of p38” value turned out to be 1.3 fold and the “inhibition of S100A8-induced phosphorylation of p65 (NF-κB)” value was 1.7 fold. The “MC38 tumor suppression, combination with anti-PD-1” value in series [3] is reported as “significantly improved the efficacy of anti-PD-1 therapy; also recorded: increased the efficacy of anti-PD-1 therapy”. Further, the MDSC cell number entry in the series with MDSCs was “reduced the cell population of MDSCs; also recorded: reduces cell number of MDSCs in peripheral blood”.
